Source: patent US20100008912A1, “COMBINATION DRUG” (TAKEDA PHARMACEUTICAL COMPANY LIMITED, priority 2006, published 2010)
Counter-ions that a name gives are not always drawn.

Tests used:
N87 (gastric cancer) = assay: Cell growth determination test of combined use, Combination Index, N87; assay type: cell-based, human; details: combined use with compound A
Procedure: (§1) The cell density of the cell suspension was measured by cell counter Sysmex CDA500, and the cell density was adjusted to 4×10^4 cell/mL using the aforementioned medium, which was dispensed to each well of a 96 well multi-well culture plate (Nunc) by 0.15 mL and cultured overnight at 37° C., 5% CO2. […] After culturing at 37° C., 5% CO2 for 5 days, the cells of each well were fixed, stained and subjected to colorimetry. The effect of the combined use was determined by the method of Chou T C, Talalay P Adv.
(§2) The effect of combined use was determined by the method of Chou T C, Talalay P Adv.

OE19 (esophageal cancer) = assay: Cell growth determination test of combined use, Combination Index, OE19; assay type: cell-based, human; details: combined use with compound A
Procedure: as §1, §2

Calu3 (lung cancer) = assay: Cell growth determination test of combined use, Combination Index, Calu3; assay type: cell-based, human; details: combined use with compound A; Calu-3
Procedure: (§3) Human breast cancer cell line BT-474 (ATCC (American Type Culture Collection) catalog No. HTB-20, Lasfargues E Y, In Vitro 15:723-729 (1979)), which is a passage cultured HER2 high expressing cell, was treated with trypsin and suspended in RPMI-1640 medium (GibcoInvitrogen) containing 10% bovine fetus serum (GibcoInvitrogen). The cell density of the cell suspension was measured by cell counter Sysmex CDA500, and the cell density was adjusted to 4×10^4 cell/mL using the aforementioned medium, which was dispensed to each well of a 96 well multi-well culture plate (Nunc) by 0.15 mL and cultured overnight at 37° C., 5% CO2. Thereto was added a medium containing compound A 40-200 nmol/L at a given concentration, a medium containing trastuzumab (Herceptin (trademark) (Genentech, Inc.) catalog No. NDC 50242-134-68, 79-400 ng/mL) at a given concentration, or a medium containing compound A 40-200 nmol/L and trastuzumab 79-400 ng/mL at a given concentration. […] The effect of the combined use was determined by the method of Chou T C, Talalay P Adv. […]
(§4) HER2 high expressing human cancer cell lines, BT-474 (breast cancer), N87 (gastric cancer), Calu3 (lung cancer) and OE19 (esophageal cancer), were purchased from ATCC and used for the experiments. […] The effect of combined use was determined by the method of Chou T C, Talalay P Adv.

[1] = system: Human breast cancer cell line BT-474; assay: Cell growth test of combined use, Combination Index by the method of Chou and Talalay, BT-474; assay type: cell-based; details: for Combination Index at the time of inhibition of cell growth by 50%: combined use with compound A, BT-474
Procedure: as §1, §2

[2] = system: HER2 high expressing clinical gastric cancer cell line (4-1ST); assay: Tumor growth of 4-1ST tumor pieces transplanted subcutaneously in nude mouse, combined use; assay type: in vivo
From the text: A tumor mass of 4-1ST (obtained from Central Institute for Experimental Animals), which was HER2 high expressing clinical gastric cancer cell line transplanted and passaged in vivo in nude mouse, was recovered from nude mouse, aseptically cut into 2 to 3 mm square pieces. The above-mentioned tumor piece was fixed on a trocar transplantation tool and transplanted subcutaneously into the abdomen of nude mouse. As a nude mouse for transplantation, BALB/cAJc l-nu/nu, female, 5-week-old mice were purchased from CLEA Japan, Inc. After 1 week of acclimation on receipt of the mice, the tumor piece was transplanted subcutaneously into the abdomen of 6-week-old mouse. The tumor volume was measured over time from 2 weeks after the transplantation and the mouse with a tumor volume of from 200 to 300 mm^3 was used for the test. Compound A was adjusted to a concentration of 10 mg/mL with 0.5% aqueous methylcellulose solution, and orally administered to mouse at a liquid amount of the above-mentioned compound A suspension of 10 mL/kg body weight. Compound A was administered twice a day in the morning and in the afternoon (administration interval was 7 hr or more) for 14 consecutive days. As for trastuzumab (Herceptin (trademark) (Genentech, Inc.) catalog No. NDC 50242-134-68), undiluted solution (21 mg/mL) was diluted to 1 mg/mL with saline, and intraperitoneally administered at a liquid amount of 10 mL/kg body weight. Trastuzumab was administered twice a week, totaling 4 times. The tumor volume was measured every 2 or 3 days, and the final tumor volume was measured on the next day of the completion of the 14 day administration and the effect of combined use was determined (FIG. 3). […] As for cetuximab (Erbitux (trademark)), undiluted solution (2 mg/mL) was intraperitoneally administered at a liquid amount of 10 mL/kg body weight. […] The tumor volume was measured every 2 or 3 days, and the final tumor volume was measured on the next day of the completion of the 14 day administration and the effect of combined use was determined (FIG. 4).

[3] = system: HER2 high expressing cancer cells (BT-474, N87, Calu3, OE19); assay: Cell growth determination test of combined use, summary over the four cell lines; assay type: cell-based, human; details: in vitro; summary of Table 1
Procedure: as §3, §4

[4] = system: Human breast cancer cell line BT-474 (HER2 high expressing); assay: Tumor growth of BT-474 transplanted subcutaneously in nude mouse, combined use; assay type: in vivo; details: compound A 10 mg/mL, 10 mL/kg orally twice a day, 14 days, 10 mL/kg intraperitoneally twice a week
Procedure: (§5) Human breast cancer cell line BT-474 (ATCC (American Type Culture Collection) catalog No. HTB-20, Lasfargues E Y, In Vitro 15:723-729 (1979)), which is a passage cultured HER2 high expressing cell, was treated with trypsin and suspended in RPMI-1640 medium (GibcoInvitrogen) containing 10% bovine fetus serum (GibcoInvitrogen).
as §5

[5] = system: Human breast cancer cell line BT-474; assay: Cell growth inhibitory assay, SRB staining method, BT-474; assay type: cell-based; details: in vitro; serially diluted; 5 days; BT-474 (FIG. 7)
Procedure: (§6) Human breast cancer cell line BT-474 was treated with trypsin and suspended in RPMI 1640 medium (Invitrogen) containing 10% bovine fetus serum (Invitrogen). BT-474 cell was plated on a 96 well plate at 6000 cells/100 μL/well. The next day, fulvestrant alone, compound A alone or a mixture of fulvestrant and compound A was serially diluted and added. After addition of the compound, the mixture was stood in a CO2 incubator for 5 days. 50 μL of 25% glutaraldehyde solution (Wako) was added to 200 μL of medium and the mixture was left standing at room temperature for 15 min. The plate was washed with PBS once, 200 μL of PBS was added, 25 μL of 50% trichloroacetic acid was added, and the mixture was left standing at 4° C. for 1 hr or longer. The plate was washed 5 times with tap water, redundant water was removed by slamming the plate against Kimtowel. 50 μL of 0.4% (w/v) Sulforhodamine B (SRB, Sigma)-containing 1% (v/v) acetic acid solution was added to each well and, 15 min later, the plate was washed 3 times with 1% acetic acid solution (v/v). The plate was thoroughly dried, 10 mM Tris solution was added, and the mixture was stirred well with a plate shaker, and the absorbance at 550 nm was measured (Bio-Rad, Benchmark Plus). In calculation, a control free of a drug was 100% (FIG. 7).

[6] = system: Human breast cancer cell line MCF-7; assay: Cell growth inhibitory assay, SRB staining method, MCF-7; assay type: cell-based; details: in vitro; serially diluted; 4 days; MCF-7 (FIG. 8)
Procedure: Human breast cancer cell line MCF-7 cell was plated on a 96 well plate at 3000 cells/100 μL/well. The next day, fulvestrant alone, compound A alone or a mixture of fulvestrant and compound A was serially diluted and added.
as §6, with “After” for “Human breast cancer cell line BT-474 was treated with trypsin and suspended in RPMI 1640 medium (Invitrogen) containing 10% bovine fetus serum (Invitrogen). BT-474 cell was plated on a 96 well plate at 6000 cells/100 μL/well. The next day, fulvestrant alone, compound A alone or a mixture of fulvestrant and compound A was serially diluted and added. After”, “for 4” for “for 5”, “(FIG. 8).” for “(FIG. 7).”

[7] = system: HER family genes (EGFR, HER2, HER3, HER4) in MCF-7 cell; assay: HER family gene expression (TaqMan PCR) in MCF-7; assay type: cell-based, human
Procedure: MCF-7 cell was plated on a 6 well plate at 8.6×10^4 cells/well. The next day, the cells were treated with compound A (1 μM), fulvestrant (1 μM) or compound A (1 μM)+fulvestrant (1 μM). After 120 hr, total RNA was extracted using an RNeasy mini kit (Qiagen). 1 μg of total RNA was subjected to a Reverse Transcriptase reaction using a high capacity cDNA archive kit (P/N 4322171, Applied Biosystems) to give cDNA. The obtained cDNA was diluted 50-fold with Nuclease Free water (Promega), and 5 μL thereof was used for PCR reaction. 2×TaqMan Universal PCR Master Mix (12.5 μL) and 20×Probe & Primer (TaqMan Gene Expression Assays, 1.25 μL) and Nuclease Free water (6.25 μL) were blended. PCR reaction and analysis were performed using GeneAmp 7700 (Applied Biosystems). The reaction conditions were 50° C.×2 min, 95° C.×10 min, followed by 95° C.×15 sec, 60° C.×1 min, which cycle was repeated 40 times. For data analysis, calculation was made with GAPDH as an internal control and according to ? Ct method

## O=c1[nH]cc(F)c(=O)[nH]1 [Compound 5FU, 5FU]
N87 (gastric cancer)
  Combination Index at the time of inhibition of cell growth by 50%: 0.95
OE19 (esophageal cancer)
  Combination Index at the time of inhibition of cell growth by 50%: 1.43

## CCc1c2c(nc3ccc(OC(=O)N4CCC(N5CCCCC5)CC4)cc13)-c1cc3c(c(=O)n1C2)COC(=O)[C@]3(O)CC [irinotecan hydrochloride]
N87 (gastric cancer)
  Combination Index at the time of inhibition of cell growth by 50%: 1.02
OE19 (esophageal cancer)
  Combination Index at the time of inhibition of cell growth by 50%: 0.83

## COc1cccc2c1C(=O)c1c(O)c3c(c(O)c1C2=O)C[C@@](O)(C(=O)CO)C[C@@H]3O[C@H]1C[C@H](N)[C@H](O)[C@H](C)O1 [doxorubicin hydrochloride]
OE19 (esophageal cancer)
  Combination Index at the time of inhibition of cell growth by 50%: 0.96
Calu3 (lung cancer)
  Combination Index at the time of inhibition of cell growth by 50%: 1.39
[1]
  Combination Index at the time of inhibition of cell growth by 50%: 1.65

## CC(C)(O)CC(=O)NCCn1ccc2ncnc(Nc3ccc(Oc4cccc(C(F)(F)F)c4)c(Cl)c3)c21 [Compound A, N-{2-[4-({3-chloro-4-[3-(trifluoromethyl)phenoxy]phenyl}amino)-5H-pyrrolo[3,2-d]pyrimidin-5-yl]ethyl}-3-hydroxy-3-methylbutanamide]
[2]; compound A 10 mg/mL and erlotinib 2 mg/mL, each 10 mL/kg orally twice a day, 14 days (FIG. 5)
  Effect of combined use of compound A and erlotinib on tumor volume: synergistic effect
[2]; compound A 10 mg/mL, 10 mL/kg orally twice a day, 14 days, cetuximab 2 mg/mL, 10 mL/kg intraperitoneally twice a week, 4 times (FIG. 4)
  Effect of combined use of compound A and cetuximab on tumor volume: synergistic effect
[2]; compound A 10 mg/mL, 10 mL/kg orally twice a day, 14 days, trastuzumab 1 mg/mL, 10 mL/kg intraperitoneally twice a week, 4 times (FIG. 3)
  Effect of combined use of compound A and trastuzumab on tumor volume: synergistic effect
[3]
  Effect of combined use of compound A and chemotherapeutic agents on cell growth: additive effect
[4]; paclitaxel 3 mg/mL, 4 times (FIG. 6)
  Effect of combined use of compound A and paclitaxel on tumor volume, compared to each agent alone: stronger action
[4]; trastuzumab 1 mg/mL, 4 times, two-way analysis of variance (FIG. 2)
  Effect of combined use of compound A and trastuzumab on tumor volume: synergistic effect
[5]
  Cell growth inhibition by combined use of compound A and fulvestrant, compared to each alone: stronger cell growth inhibitory action
[6]
  Cell growth inhibition by combined use of compound A and fulvestrant, compared to each alone: stronger cell growth inhibitory action
[1]; in vitro, compound A 40-200 nmol/L + trastuzumab 79-400 ng/mL, 5 days, Combination Index vs Fraction affected (FIG. 1)
  Effect of combined use of compound A and trastuzumab on cell growth: synergistic effect
[7]; compound A 1 μM alone or + fulvestrant 1 μM, 120 hr (FIG. 9)
  Action on HER signal: HER signal blocking action

## C[C@]12CC[C@@H]3c4ccc(O)cc4C[C@@H](CCCCCCCCC[S+]([O-])CCCC(F)(F)C(F)(F)F)[C@H]3[C@@H]1CC[C@@H]2O (stereo partly drawn) [fulvestrant]
[7]; 1 μM, 120 hr, GAPDH as internal control (FIG. 9)
  HER family gene expression (EGFR, HER2, HER3, HER4), control group = 1: increase

## CC(=O)O[C@@]12CO[C@@H]1C[C@H](O)[C@@]1(C)C(=O)[C@H](O)C3=C(C)[C@@H](OC(=O)[C@H](O)[C@@H](NC(=O)OC(C)(C)C)c4ccccc4)C[C@@](O)([C@@H](OC(=O)c4ccccc4)[C@H]21)C3(C)C [docetaxel]
N87 (gastric cancer)
  Combination Index at the time of inhibition of cell growth by 50%: 0.57
OE19 (esophageal cancer)
  Combination Index at the time of inhibition of cell growth by 50%: 0.94
[1]
  Combination Index at the time of inhibition of cell growth by 50%: 1.10
